Data set [1] has as its target T1, aromatase (Homo sapiens, UniProt P11511).
T1 construct: gene CYP19A1; human placental aromatase cDNA (nucleotides 16-1539) stably expressed in MCF-7 cells (clone Arom. 1)
T1 sequence (P11511 1-503): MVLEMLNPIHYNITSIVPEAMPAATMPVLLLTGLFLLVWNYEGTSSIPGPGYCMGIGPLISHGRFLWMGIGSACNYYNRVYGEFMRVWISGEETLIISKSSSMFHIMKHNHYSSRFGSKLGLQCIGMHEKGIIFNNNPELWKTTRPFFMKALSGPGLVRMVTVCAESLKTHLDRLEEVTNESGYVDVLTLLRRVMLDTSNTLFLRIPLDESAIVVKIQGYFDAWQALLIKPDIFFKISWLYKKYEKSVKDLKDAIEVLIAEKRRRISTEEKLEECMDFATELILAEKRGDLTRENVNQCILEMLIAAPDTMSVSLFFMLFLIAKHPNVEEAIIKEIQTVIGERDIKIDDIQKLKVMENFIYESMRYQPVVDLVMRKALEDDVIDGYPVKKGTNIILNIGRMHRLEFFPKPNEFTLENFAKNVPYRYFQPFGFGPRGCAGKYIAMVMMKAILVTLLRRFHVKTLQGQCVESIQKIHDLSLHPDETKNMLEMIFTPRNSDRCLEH
Briefly: cell-based.

Substrate in data set [2]: C[C@]12CCC(=O)C=C1CC[C@@H]1[C@@H]2CC[C@]2(C)C(=O)CC[C@@H]12
Briefly: cells, lysate or membranes.

With `C[C@]12CCC(=O)C(O)=C1CC[C@@H]1[C@@H]2CC[C@]2(C)C(=O)CC[C@@H]12` [4-hydroxyandrostenedione], the 50% inhibitory concentration (IC50) in data set [1] is 70 nM.

B1: aromatase (Homo sapiens) (protein)
chain: MVLEMLNPIHYNITSIVPEAMPAATMPVLLLTGLFLLVWNYEGTSSIPGPGYCMGIGPLISHGRFLWMGIGSACNYYNRVYGEFMRVWISGEETLIISKSSSMFHIMKHNHYSSRFGSKLGLQCIGMHEKGIIFNNNPELWKTTRPFFMKALSGPGLVRMVTVCAESLKTHLDRLEEVTNESGYVDVLTLLRRVMLDTSNTLFLRIPLDESAIVVKIQGYFDAWQALLIKPDIFFKISWLYKKYEKSVKDLKDAIEVLIAEKRRRISTEEKLEECMDFATELILAEKRGDLTRENVNQCILEMLIAAPDTMSVSLFFMLFLIAKHPNVEEAIIKEIQTVIGERDIKIDDIQKLKVMENFIYESMRYQPVVDLVMRKALEDDVIDGYPVKKGTNIILNIGRMHRLEFFPKPNEFTLENFAKNVPYRYFQPFGFGPRGCAGKYIAMVMMKAILVTLLRRFHVKTLQGQCVESIQKIHDLSLHPDETKNMLEMIFTPRNSDRCLEH
For B1, in data set [2], the Km is 0.07 µM.

The record behind these values is PMC1968759, “Biological effects of stable overexpression of aromatase in human hormone-dependent breast cancer cells” (British Journal of Cancer, 1994).
